Measurements taken from ChEMBL document CHEMBL5154691, “Discovery of novel verinurad analogs as dual inhibitors of URAT1 and GLUT9 with improved Druggability for the treatment of hyperuricemia” (Eur J Med Chem, 2022).

How the values were obtained:
[1] = Cytotoxicity against human HK-2 cells assessed as reduction in cell viability incubated for 48 hrs by MTT assay; format: toxicity, cell-based
[2] = Inhibition of URAT1 S35N mutant (unknown origin)-mediated 14C-uric acid uptake expressed in HEK293 cells using 14C-uric acid as substrate preincubated for 30 mins followed by substrate addition and measured after 15 mins by liquid scintillation counting analysis; format: cell-based; conditions: Homo sapiens
[3] = MRT (0 to infinity) in Sprague-Dawley rat at 5 mg/kg, po by LC-MS/MS analysis; format: ADME, organism-based; conditions: in vivo
Mus musculus [4] = assay: Anti-hyperuricemic activity against xanthine and potassium oxonate-induced acute hyperuricemia Kunming mouse model assessed as serum uric acid concentration at 10 mg/kg, po measured after 3 hrs (reference value: 846.22 uM); format: functional
[5] = Cytotoxicity against human HK-2 cells assessed as reduction in cell viability incubated for 24 hrs by MTT assay; format: toxicity, cell-based
[6] = Tmax in Sprague-Dawley rat at 5 mg/kg, po measured upto 36 hrs by LC-MS/MS analysis; format: ADME, organism-based; conditions: in vivo
[7] = Inhibition of URAT1 F365Y mutant (unknown origin)-mediated 14C-uric acid uptake expressed in HEK293 cells using 14C-uric acid as substrate preincubated for 30 mins followed by substrate addition and measured after 15 mins by liquid scintillation counting analysis; format: cell-based; conditions: Homo sapiens
[8] = AUC (0 to infinity) in Sprague-Dawley rat at 5 mg/kg, po by LC-MS/MS analysis; format: ADME, organism-based; design: time infinity, dose 5 mg/kg, route po; conditions: in vivo
[9] = Inhibition of URAT1 F241Y mutant (unknown origin)-mediated 14C-uric acid uptake expressed in HEK293 cells using 14C-uric acid as substrate preincubated for 30 mins followed by substrate addition and measured after 15 mins by liquid scintillation counting analysis; format: cell-based; conditions: Homo sapiens
[10] = Half life in Sprague-Dawley rat at 5 mg/kg, po measured upto 36 hrs by LC-MS/MS analysis; format: ADME, organism-based; conditions: in vivo
[11] = Inhibition of URAT1 F358Y mutant (unknown origin)-mediated 14C-uric acid uptake expressed in HEK293 cells using 14C-uric acid as substrate preincubated for 30 mins followed by substrate addition and measured after 15 mins by liquid scintillation counting analysis; format: cell-based; conditions: Homo sapiens
[12] = target: T1, Broad substrate specificity ATP-binding cassette transporter ABCG2 (Homo sapiens, UniProt Q9UNQ0); assay: Inhibition of ABCG2 (unknown origin) expressed in HEK293 cells membrane vesicles assessed as inhibition of ATP-induced 14C-uric acid uptake preincubated for 15 mins followed by incubation with ATP and substrate for 5 mins by liquid scintillation counting analysis; format: toxicity, cell membranes, Membrane vesicle
T1 sequence (Q9UNQ0 whole entry): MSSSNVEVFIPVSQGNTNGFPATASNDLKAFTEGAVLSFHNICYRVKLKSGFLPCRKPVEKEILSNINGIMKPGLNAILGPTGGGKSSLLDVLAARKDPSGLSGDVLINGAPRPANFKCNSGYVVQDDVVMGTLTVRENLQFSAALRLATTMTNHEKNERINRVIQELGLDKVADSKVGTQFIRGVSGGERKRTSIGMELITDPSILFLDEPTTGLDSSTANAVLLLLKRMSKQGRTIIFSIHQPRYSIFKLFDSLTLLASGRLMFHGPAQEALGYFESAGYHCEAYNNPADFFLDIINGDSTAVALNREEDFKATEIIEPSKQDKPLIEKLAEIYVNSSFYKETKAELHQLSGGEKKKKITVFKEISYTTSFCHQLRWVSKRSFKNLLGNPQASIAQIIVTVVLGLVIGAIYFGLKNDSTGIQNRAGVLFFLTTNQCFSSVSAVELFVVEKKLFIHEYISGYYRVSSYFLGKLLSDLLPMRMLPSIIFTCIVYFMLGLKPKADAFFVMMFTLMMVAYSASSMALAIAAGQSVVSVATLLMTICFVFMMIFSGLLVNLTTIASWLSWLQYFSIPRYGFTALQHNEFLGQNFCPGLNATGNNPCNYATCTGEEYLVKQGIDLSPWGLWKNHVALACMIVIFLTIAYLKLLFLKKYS

[13] = Cmax in Sprague-Dawley rat at 5 mg/kg, po measured upto 36 hrs by LC-MS/MS analysis; format: ADME, organism-based; design: time < 36 hrs, dose 5 mg/kg, route po; conditions: in vivo
Mus musculus [14] = assay: Anti-hyperuricemic activity against xanthine and potassium oxonate-induced acute hyperuricemia Kunming mouse model assessed as increase in urine uric acid concentration at 10 mg/kg, po measured for 24 hrs; format: functional
[15] = target: T2, Solute carrier family 22 member 6 (Homo sapiens, UniProt Q4U2R8); assay: Inhibition of OAT1 (unknown origin) expressed in HEK293 cells assessed as inhibition of 6-CFL uptake preincubated for 30 mins followed by incubation with 6-CFL and measured after 15 mins by fluorescence based analysis; format: toxicity, cell-based
T2 sequence (Q4U2R8 whole entry): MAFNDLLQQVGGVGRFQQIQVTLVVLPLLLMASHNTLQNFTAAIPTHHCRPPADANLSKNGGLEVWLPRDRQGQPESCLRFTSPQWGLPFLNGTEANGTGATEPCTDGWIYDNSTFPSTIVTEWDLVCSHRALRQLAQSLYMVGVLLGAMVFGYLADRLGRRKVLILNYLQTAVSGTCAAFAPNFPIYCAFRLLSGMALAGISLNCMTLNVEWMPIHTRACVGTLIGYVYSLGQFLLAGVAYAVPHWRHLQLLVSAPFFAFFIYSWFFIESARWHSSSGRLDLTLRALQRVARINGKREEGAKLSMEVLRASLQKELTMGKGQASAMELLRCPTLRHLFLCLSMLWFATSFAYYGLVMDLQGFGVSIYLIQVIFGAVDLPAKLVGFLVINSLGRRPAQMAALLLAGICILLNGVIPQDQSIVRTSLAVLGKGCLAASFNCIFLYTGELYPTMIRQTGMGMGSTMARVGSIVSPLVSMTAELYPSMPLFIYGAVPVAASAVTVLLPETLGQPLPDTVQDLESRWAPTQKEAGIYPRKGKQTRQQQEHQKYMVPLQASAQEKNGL

[16] = MRT (0 to infinity) in Sprague-Dawley rat at 5 mg/kg, iv by LC-MS/MS analysis; format: ADME, organism-based; conditions: in vivo
[17] = Inhibition of URAT1 R487K mutant (unknown origin)-mediated 14C-uric acid uptake expressed in HEK293 cells using 14C-uric acid as substrate preincubated for 30 mins followed by substrate addition and measured after 15 mins by liquid scintillation counting analysis; format: cell-based; conditions: Homo sapiens
[18] = Tmax in Sprague-Dawley rat at 5 mg/kg, iv measured upto 36 hrs by LC-MS/MS analysis; format: ADME, organism-based; conditions: in vivo
[19] = Half life in Sprague-Dawley rat at 5 mg/kg, iv measured upto 36 hrs by LC-MS/MS analysis; format: ADME, organism-based; conditions: in vivo
[20] = Inhibition of URAT1 R477K mutant (unknown origin)-mediated 14C-uric acid uptake expressed in HEK293 cells using 14C-uric acid as substrate preincubated for 30 mins followed by substrate addition and measured after 15 mins by liquid scintillation counting analysis; format: cell-based; conditions: Homo sapiens
[21] = Inhibition of URAT1 I481M mutant (unknown origin)-mediated 14C-uric acid uptake expressed in HEK293 cells using 14C-uric acid as substrate preincubated for 30 mins followed by substrate addition and measured after 15 mins by liquid scintillation counting analysis; format: cell-based; conditions: Homo sapiens
[22] = AUC (0 to infinity) in Sprague-Dawley rat at 5 mg/kg, iv by LC-MS/MS analysis; format: ADME, organism-based; design: time infinity, dose 5 mg/kg, route iv; conditions: in vivo
[23] = Oral bioavailability in Sprague-Dawley rat at 5 mg/kg measured upto 36 hrs by LC-MS/MS analysis; format: ADME, organism-based; conditions: in vivo
[24] = Cmax in Sprague-Dawley rat at 5 mg/kg, iv measured upto 36 hrs by LC-MS/MS analysis; format: ADME, organism-based; design: time < 36 hrs, dose 5 mg/kg, route iv; conditions: in vivo
[25] = target: T3, Solute carrier family 22 member 12 (Homo sapiens, UniProt Q96S37); assay: Inhibition of URAT1 (unknown origin)-mediated 14C-uric acid uptake expressed in HEK293 cells using 14C-uric acid as substrate preincubated for 30 mins followed by substrate addition and measured after 15 mins by liquid scintillation counting analysis; format: cell-based
T3 sequence (Q96S37 whole entry): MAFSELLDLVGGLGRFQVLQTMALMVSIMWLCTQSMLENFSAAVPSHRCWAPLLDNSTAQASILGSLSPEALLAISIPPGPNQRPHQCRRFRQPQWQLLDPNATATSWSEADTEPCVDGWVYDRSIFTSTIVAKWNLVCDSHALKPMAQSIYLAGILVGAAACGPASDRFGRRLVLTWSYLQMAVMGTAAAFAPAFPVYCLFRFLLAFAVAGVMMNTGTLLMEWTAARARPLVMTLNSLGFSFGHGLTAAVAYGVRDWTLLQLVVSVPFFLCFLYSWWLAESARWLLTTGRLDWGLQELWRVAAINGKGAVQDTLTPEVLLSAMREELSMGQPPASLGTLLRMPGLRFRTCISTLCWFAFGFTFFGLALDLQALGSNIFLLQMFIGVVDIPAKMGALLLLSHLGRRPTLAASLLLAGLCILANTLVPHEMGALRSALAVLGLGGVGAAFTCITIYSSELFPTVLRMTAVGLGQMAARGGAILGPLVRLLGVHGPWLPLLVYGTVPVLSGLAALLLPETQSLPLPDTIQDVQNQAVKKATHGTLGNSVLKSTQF

IC50 [2]: 4.21 µM
MRT inf [3]: 4.05 h
Tmax [6]: 0.46 h
IC50 [7]: 5.01 µM
AUC(0-inf) [8]: 4130 ng·h/mL
IC50 [9]: 2.14 µM
half-life [10]: 4.01 h
IC50 [11]: 0.24 µM
Cmax [13]: 7210 ng/mL
MRT inf [16]: 3.46 h
IC50 [17]: 0.11 µM
Tmax [18]: 5.4 min
half-life [19]: 3.49 h
IC50 [20]: 1.24 µM
IC50 [21]: 0.94 µM
AUC(0-inf) [22]: 19700 ng·h/mL
bioavailability [23]: 21.5%
Cmax [24]: 13400 ng/mL
IC50 [25]: 0.17 µM
SMILES: CC(C)(Sc1ccncc1-c1ccc(C#N)c2ccccc12)C(=O)[O-].[Na+]
IC50 at 48 h [1]: 109 µM
Activity (Mus musculus [4]): 625.24 µM
IC50 at 24 h [5]: 197 µM
IC50 [12]: 18.7 µM
Activity (Mus musculus [14]): 2371.02 µM
IC50 [15]: 12.7 µM
